# Reference: patent US10464926B2, “Heterobicyclic compounds and their use for the treatment of tuberculosis” (OTSUKA PHARMACEUTICAL CO., LTD., priority 2014, dated 2019)
# What was measured:
# [1] = test system: Mycobacterium tuberculosis (M. tuberculosis Kurono); test: Antibacterial test (agar dilution method), M. tuberculosis Kurono; assay type: cell-based; settings: Mycobacterium tuberculosis, 336 h; 7H11 agar medium, about 10^6 CFU/mL, 37° C. for 14 days; read-out: Minimum inhibitory concentration (MIC) kurono
SMILES,MIC [1] [µg/mL],melting point [°C]
"O=C1CCc2c(OC[C@@]3(O)CCN(c4ccc(Cl)cc4F)C[C@@H]3O)ccc(F)c2N1 [Example 265, 5-{[(3S,4S)-1-(4-Chloro-2-fluorophenyl)-3,4-dihydroxypiperidin-4-yl]methoxy}-8-fluoro-3,4-dihydroquinolin-2(1H)-one]",< 0.39,
"O=C1CCc2c(OCC3(O)CCN(c4ccc(Br)cc4F)CC3)cc(F)c(F)c2N1 [Example 130, 5-{[1-(4-Bromo-2-fluorophenyl)-4-hydroxypiperidin-4-yl]methoxy}-7,8-difluoro-3,4-dihydroquinolin-2(1H)-one]",< 0.39,
"O=C1CCc2c(OC[C@]3(O)CCN(c4ncc(Cl)cc4Cl)C[C@H]3O)ccc(F)c2N1 [Example 251, 5-{[(3R,4R)-1-(3,5-Dichloropyridin-2-yl)-3,4-dihydroxypiperidin-4-yl]methoxy}-8-fluoro-3,4-dihydroquinolin-2(1H)-one]",< 0.39,
N#C[C@H]1CN(c2ncc(Cl)cc2Cl)CC[C@@]1(O)COc1ccc(F)c2c1CCC(=O)N2 (relative stereo),,206 to 207
Cc1ccc(N2CCC(O)(COc3ccc(F)c4c3CCC(=O)N4)CC2)nc1C,,197.9 to 199.6
CCOc1cc(F)c(N2CCC(O)(COc3ccc(F)c4c3CCC(=O)N4)CC2)cc1F,,174.1 to 174.5
O=C1CCc2c(OC[C@]3(O)CCN(c4cc5c(cc4F)OC(F)(F)O5)C[C@H]3O)ccc(F)c2N1 (relative stereo),,197.4 to 197.5
CCc1ccccc1N1CCC(O)(COc2ccc(F)c3c2CCC(=O)N3)CC1,,178.6 to 179.3
O=C1CCc2c(OCC3(O)[C@H](O)CN(c4c(F)cc(Cl)cc4F)C[C@H]3O)ccc(F)c2N1 (relative stereo),,221.5 to 222
O=C1CCc2c(OCC3(O)CCN(c4cc(OC(F)(F)F)ccc4Cl)CC3)ccc(F)c2N1,,190.4 to 190.5
N#Cc1ccc(N2CCC(O)(COc3ccc(F)c4c3CCC(=O)N4)CC2)cc1,,216
O=C1CCc2c(OC[C@@]3(O)CCN(c4ncc(Cl)cc4Cl)C[C@@H]3O)ccc(F)c2N1 (relative stereo),,202.6 to 204.8
O=C1CCc2c(OCC3(O)CCN(c4ccc(Cl)cc4Br)CC3)ccc(F)c2N1,,204.9
CCOc1cnc(N2CCC(O)(COc3ccc(Cl)c4c3CCC(=O)N4)CC2)c(Cl)c1,,169 to 170.4
O=C1CCc2c(OC[C@]3(O)CCN(c4cc(Cl)c(F)cc4Cl)C[C@H]3O)ccc(Cl)c2N1,,237.7 to 238.6
O=C1CCc2c(OCC3(O)CCN(c4c(F)cc(OC(F)F)cc4F)CC3)ccc(F)c2N1,,172.6 to 172.7
O=C1CCc2c(OC[C@]3(O)CCN(c4ccc(F)cc4F)C[C@H]3O)ccc(F)c2N1,,175.2 to 176.1
O=C1CCc2c(OC[C@]3(O)CCN(c4ccc(F)cc4Cl)C[C@H]3O)cc(F)c(Cl)c2N1,,175.7 to 177
O=C1CCc2c(OC[C@]3(O)CCN(c4c(F)cc(F)cc4Cl)C[C@H]3O)ccc(F)c2N1 [Example 304],,188 to 189
O=C1CCc2c(OC[C@]3(O)CCN(c4c(F)cc(OCC(F)(F)F)cc4F)C[C@H]3O)ccc(F)c2N1 [Example 311],,187
O=C1CCc2c(OCC3(O)CCN(c4cc([N+](=O)[O-])ccc4Cl)CC3)ccc(F)c2N1,,204.8 to 205.4
CN(CC1(O)CCN(c2ccc(Cl)cc2Cl)CC1)c1ccc(F)c2c1CCC(=O)N2,,156 to 157
CC(C)Oc1ccc(N2CCC(O)(COc3ccc(F)c4c3CCC(=O)N4)CC2)c(F)c1,,191.9 to 192.2
COc1cc(F)c(N2CCC(O)(COc3ccc(Cl)c4c3CCC(=O)N4)CC2)c(F)c1,,171.1 to 171.3

SMILES,MIC [1] [µg/mL],melting point [°C]
COc1cc(N2CCC(O)(COc3ccc(Cl)c4c3CCC(=O)N4)CC2)c(F)cc1F,,191.4 to 191.7
O=C1CCc2c(OC[C@]3(O)CCN(c4ccc(Cl)cc4F)C[C@H]3O)ccc(Cl)c2N1 (relative stereo) [Example 334],,195.5 to 195.6
CC(C)c1ccc(N2CCC(O)(COc3ccc(F)c4c3CCC(=O)N4)CC2)cc1,,194.9 to 195
O=C1CCc2c(OC[C@]3(O)CCN(c4c(F)cc(F)cc4Cl)C[C@H]3O)ccc(F)c2N1 (relative stereo) [Example 303],,215 to 218
O=C1CCc2cc(OCC3(O)CCN(c4ccc(Cl)cc4F)CC3)ccc2N1,,219.1 to 220
O=C1CCc2c(OCC3(O)CCN(c4cc5c(cc4F)OC(F)(F)O5)CC3)ccc(Cl)c2N1,,213.4 to 213.5
O=C1CCc2c(OC[C@@]3(O)CCN(c4ccc(Br)cc4F)C[C@H]3O)ccc(F)c2N1,,194.7 to 194.8
N#Cc1cc(F)ccc1N1CCC(COc2ccc(F)c3c2CCC(=O)N3)(ON)CC1,,207 to 208
O=C1CCc2c(OC[C@]3(O)CCN(c4cc(Cl)c(F)cc4Cl)C[C@H]3O)ccc(F)c2N1,,216 to 216.3
O=C1CCc2c(OCC3(O)CCN(c4ccsc4)CC3)ccc(F)c2N1,,200.4 to 200.5
O=C1CCc2c(OCC3(O)CCN(c4cc(CCOc5ccc(F)cc5)c(Cl)cc4F)CC3)ccc(F)c2N1,,156 to 156.1
N#Cc1cccc(N2CCC(O)(COc3ccc(F)c4c3CCC(=O)N4)CC2)c1,,175 to 177
O=C1CCc2c(OC[C@]3(O)CCN(c4cc(F)c(Cl)cc4Cl)C[C@H]3O)ccc(Cl)c2N1,,180.2 to 180.6
O=C1CCc2c(OC[C@]3(O)CCN(c4nc5ccccc5[nH]4)C[C@H]3O)ccc(F)c2N1,,279 to 281
CN(C)CCOc1cc(N2CCC(O)(COc3ccc(F)c4c3CCC(=O)N4)CC2)c(F)cc1Cl,,162.9 to 164.1
O=C1CCc2c(OC[C@]3(O)CCN(c4c(F)cc(Br)cc4F)C[C@H]3O)ccc(Cl)c2N1 [Example 326],,203.6 to 203.7
O=C1CCc2c(OCC3(O)CCN(c4ncc(Cl)cc4F)CC3)ccc(Cl)c2N1,,174.4 to 175.8
O=C1CCc2c(OC[C@]3(O)CCN(c4c(F)cc(Cl)cc4F)C[C@H]3O)cc(F)c(F)c2N1,,199 to 201
O=C1CCc2c(OCC3(O)CCN(c4ccc(OCCF)cc4F)CC3)ccc(F)c2N1,,186.5 to 186.7
CCCc1cc(N2CCC(O)(COc3ccc(F)c4c3CCC(=O)N4)CC2)c(F)cc1F,,184.7 to 184.8
O=C1CCc2c(OC[C@]3(O)CCN(c4ccc(F)cc4)C[C@H]3O)ccc(F)c2N1 [Example 337],,185.2 to 185.3
CC(C)c1ccccc1N1CCC(O)(COc2ccc(F)c3c2CCC(=O)N3)CC1,,163 to 163.3
O=C1CCc2c(OC[C@]3(O)CCN(c4ccc(Cl)cc4F)C[C@@H]3F)ccc(F)c2N1 (relative stereo),,190 to 191
CCOc1cc(N2CCC(O)(COc3ccc(Cl)c4c3CCC(=O)N4)CC2)c(F)cc1F,,182.1 to 182.4

SMILES,MIC [1] [µg/mL],melting point [°C]
CCc1cc(N2CCC(O)(COc3ccc(F)c4c3CCC(=O)N4)CC2)c(F)cc1Cl,,201.3 to 202.4
CC(C)c1cc(N2CCC(O)(COc3ccc(F)c4c3CCC(=O)N4)CC2)c(F)cc1Cl,,225.3 to 225.7
O=C1CCc2c(OCC3(O)CCN(c4ccc(OCc5ccc(C(F)(F)F)cc5)cc4F)CC3)ccc(F)c2N1,,207.4 to 210.3
O=C1CCc2c(OCC3(O)CCN(c4ccc(Br)cc4F)CC3)ccc(F)c2N1,,204.8 to 205
CO[C@H]1CN(c2ncc(Cl)cc2Cl)CC[C@@]1(O)COc1ccc(F)c2c1CCC(=O)N2 (relative stereo),,186 to 187
O=C1CCc2c(OC[C@]3(O)CCN(c4ccc(F)cc4)C[C@H]3O)ccc(F)c2N1 (relative stereo) [Example 336],,182.4 to 182.5
O=C1CCc2c(OCC3(O)CCN(c4ccc(OCc5ccc(C(F)(F)F)cn5)cc4F)CC3)ccc(F)c2N1,,194.9 to 195.1
O=C1CCc2c(OCC3(O)CCN(c4cc(F)c(Cl)cc4Cl)CC3)ccc(F)c2N1,,198.7 to 198.9
O=C1CCc2c(OCC3(O)CCN(c4ccc(F)cc4F)CC3)ccc(Cl)c2N1,,200 to 200.3
O=C1CCc2c(OCC3(O)CCN(c4cc(OCc5ccc(Cl)cc5)c(Cl)cc4F)CC3)ccc(F)c2N1,,205.1 to 205.7
O=C1CCc2c(OC[C@@]3(O)CCN(c4ccc(Cl)cc4F)C[C@@H]3O)ccc(F)c2N1 (relative stereo),,191.9 to 193.5
CCCOc1cc(F)c(N2CC[C@@](O)(COc3ccc(F)c4c3CCC(=O)N4)[C@H](O)C2)c(F)c1,,194.8 to 195
O=C1CCc2c(OC[C@]3(O)CCN(c4ccc(Br)cc4F)C[C@H]3O)cc(F)c(Cl)c2N1 (relative stereo),,194
O=C1CCc2c(OC[C@]3(O)CCN(c4nc5ccccc5o4)C[C@H]3O)ccc(F)c2N1,,190 to 191
O=C1CCc2c(OC[C@]3(O)CCN(c4c(F)cc(Cl)cc4F)C[C@H]3O)ccc(Cl)c2N1,,197 to 199
CCOC(=O)c1cc(N2CCC(O)(COc3ccc(F)c4c3CCC(=O)N4)CC2)ccc1Cl,,148
COc1cc(N2CCC(O)(COc3ccc(Cl)c4c3CCC(=O)N4)CC2)c(F)cc1Cl,,228.7 to 228.9
O=C1CCc2c(OC[C@]3(O)CCN(c4c(F)cc(F)cc4F)C[C@H]3O)ccc(F)c2N1 (relative stereo) [Example 305],,198 to 199
CC(=O)NC1(COc2ccc(F)c3c2CCC(=O)N3)CCN(c2ncc(F)cc2C#N)CC1,,237.8 to 238.2
CCCOc1cc(N2CCC(O)(COc3ccc(F)c4c3CCC(=O)N4)CC2)c(F)cc1Cl,,200.7 to 201.4
O=C1CCc2c(OCC3(O)CCN(c4ccc(Cl)cn4)CC3)ccc(F)c2N1,,192 to 192.3
O=C1CCc2c(OCC3(O)CCN(c4c(F)cc(Br)cc4F)CC3)cc(F)c(Cl)c2N1,,200.5 to 200.8
CCOc1cc(N2CCC(O)(COc3ccc(F)c4c3CCC(=O)N4)CC2)c(F)cc1Cl,,239.8 to 239.9
O=C1CCc2c(OC[C@]3(O)CCN(c4ccc(Cl)cc4Cl)C[C@H]3O)ccc(Cl)c2N1,,184.1 to 185.1
